Experimental findings from patent US8470878B2, “Heterocyclic sulfonamide derivatives” (Novartis AG, priority 2011, dated 2013) are described below.

For one data set, the target named is T1, BRAF-MEK-ERK cascade (Homo sapiens, UniProt Q02750).
T1 construct: human full length MEK1 kinase (Cat No. 14-706); purchased Upstate 14-557 (BRAF V599E); 14-706 (MEK1); 14-536 (ERK2)
The data set can be described thus: BRAF-MEK-ERK enzymatic cascade assay (TR-FRET). It counts as biochemical. The conditions noted are these: mean±SEM, n=3; 10 point dose response, 45 minutes pre-incubation. The source says: A BRAF-MEK-ERK cascade assay is used to evaluate the effects of these compounds as inhibitors of the MAP kinase pathway. An enzymatic cascade assay is set up using recombinant human activated BRAF (V599E) kinase (Cat No. 14-557), human full length MEK1 kinase (Cat No. 14-706) and human full length active MAP Kinase 2/ERK2 (Cat No. 14-536) enzymes procured from Upstate. TR-FRET (Time resolved fluorescence resonance energy transfer) detection technology is used for the read out. […] The kinase reaction is stopped after 90 minutes with 10 mM EDTA and Lance detection mix (2 nM Eu-labeled phospho-serine/threonine antibody (Cat. No. AD0176-Perkin Elmer), 20 nM SA-APC (Cat No. CR130-100-Perkin Elmer) is added. The TR-FRET signal (Excitation at 340 nm, Emission at 615 nm and 665 nm) is read with 50 μs delay time on a Victor3 V fluorimeter. The data is calculated using the ratio of readings at 665 nm to 615 nm. The final concentration of DMSO is 2.5% in the assay. Compounds are screened at 10 μM concentration with pre-incubation of the enzymes in the presence of test compound for 45 minutes.
Each individual IC50 is determined using a 10 point dose response curve generated by GraphPad Prism software Version 4 (San Diego, Calif., USA) using non linear regression curve fit for sigmoidal dose response (variable slope).
These assays described above are fully detailed in Han, Shulin, et. al., Bioorganic & Medicinal Chemistry Letters (2005) 15, 5467-5473, and in Yeh, et. al., Clin Cancer Res (2007) 13 (5), 1576-1583.

The nature of data set [1]: Pharmacokinetics in athymic nude rats. Type of data set: in vivo. The conditions noted are these: rat; for AUC / clearance / half-life / Vd / bioavailability / Cmax: athymic nude, plasma; for bioavailability: p.o. (3 mg/kg) vs i.v. (0.5 mg/kg), oral bioavailability; for PK-parameters compared to Example 1: one-way analysis of variance. How it is done:
Pharmacokinetics in Athymic Nude Rats
For pharmacokinetics studies, the following parameters were calculated by non-compartmental regression analysis using Winnonlin 5.0 software (Pharsight, Mountain View, Calif., USA): half life in plasma (t1/2term); plasma clearance (CL); plasma maximum concentration (Cmax); plasma area-under-the-concentration-time-curve (AUC); and percent oral bioavailability (F %).

Data set [2] relates to DUSP6 expression in A375 tumors. Description: A375 B-RafV600E human melanoma model in rat, PK-PD experiment (DUSP6 expression in tumor, real time quantitative PCR). It counts as in vivo. The conditions noted are these: A375 tumor bearing rats, single oral dose, at 12 h and 24 h post dosing; two-way analysis of variance, p=0.003 and p=0.006. As for the experimental part: A375 B-RafV600E Human Melanoma Model in Rat—PK-PD Experiment:
A375 cells were thawed using a 37° C. water bath. Cells were transferred to a tube containing 10 mls of warm DMEM medium. The tube was centrifuged for 5 minutes at 1200 rpm and the supernatant was discarded. The cell pellet was re-suspended and transferred to a 75 cm^2 tissue culture flask containing 15 mls of medium and cultured at 37° C. in a 5% CO2 incubator.
On the day of the cells implantation, cells were harvested (about 85% confluent), and re-suspended in cold medium containing 4 mg/ml of matrigel. This cell suspension was injected, subcutaneously, to athymic-nude pre-irradiated (500 rads) rats. Ten million cells (injection volume, 200 μL) were injected, subcutaneously, into the right flank region of the rats 24 hours after irradiation. Tumor bearing rats were randomized when the tumor volume reached approximately 500 mm^3 after about 15 to 20 days. Three rats were used for each time point.
Rats were treated orally with a single dose of 10, 30 and 60 mg/kg p.o. of Example 1A and 30 mg/kg of Example 1B. […] The mRNA expression levels of two direct target genes of MEK substrate P-Erk (DUSP6 and SPRY4) and an indirect target (BMF) can be measured. […] The tumor samples were pulverized, extracted and studied for expression of the […] DUSP6 using a real time quantitative PCR.

For the compound `O=S(=O)(Nc1c(Nc2ccc(I)cc2F)c(F)c(F)c2ccoc12)C1(CC(O)CO)CC1` (racemic) [Example 1, 1-(2,3-Dihydroxy-propyl)-cyclopropanesulfonic acid [4,5-difluoro-6-(2-fluoro-4-iodo-phenylamino)-benzofuran-7-yl]amide], on BRAF-MEK-ERK cascade, half-maximal inhibition (IC50) required 2.1 ± 0.58 nM. In data set [1] (iv, i.v. (0.5 mg/kg)), the area under the curve (AUC) is 70 ± 9 µg·h/mL, the clearance is 7.6 mL/h/kg, the half-life was 15.6 ± 1.7 h and the distribution volume (Vd) amounted to 0.17 ± 0.006 L/kg. For the same compound, the bioavailability in data set [1] is 87%. Also, in data set [1] (po, p.o. (3 mg/kg)), the exposure (AUC) is 365 ± 45 µg·h/mL and the Cmax worked out at 9800 ± 700 ng/mL.
At BRAF-MEK-ERK cascade, `O=S(=O)(Nc1c(Nc2ccc(I)cc2F)c(F)c(F)c2ccoc12)C1(C[C@H](O)CO)CC1` [Example 1A, (S)—N-(4,5-difluoro-6-((2-fluoro-4-iodophenyl)amino)benzofuran-7-yl)-1-(2,3-dihydroxypropyl)cyclopropane-1-sulfonamide] had an IC50 of 2 ± 0.25 nM. Further, in data set [1] (iv, i.v. (0.5 mg/kg)), the AUC was determined as 126 ± 3 µg·h/mL, the clearance was 4 mL/h/kg, the half-life is 19.9 ± 0.8 h and the Vd amounted to 0.11 ± 0.006 L/kg. In addition, in data set [1], the bioavailability came out at 132% and the “PK-parameters compared to Example 1” value was “improved PK-parameters compared to Example 1”. In addition, in data set [1] (po, p.o. (3 mg/kg)), the AUC was found to be 994 ± 30 µg·h/mL and the Cmax was 25600 ± 700 ng/mL. The “lowering levels of DUSP-6 in tumor” value in data set [2] was “significantly more effective than Example-1B”.
In the case of `O=S(=O)(Nc1c(Nc2ccc(I)cc2F)c(F)c(F)c2ccoc12)C1(C[C@@H](O)CO)CC1` [Example 1B, (R)—N-(4,5-difluoro-6-((2-fluoro-4-iodophenyl)amino)benzofuran-7-yl)-1-(2,3-dihydroxypropyl)cyclopropane-1-sulfonamide], the IC50 at BRAF-MEK-ERK cascade stood at 1.6 ± 0.1 nM. Also, in data set [1] (iv, i.v. (0.5 mg/kg)), the AUC was 100 ± 14 µg·h/mL, the clearance is 5.2 mL/h/kg, the half-life is 17.1 ± 1.8 h and the volume of distribution (Vd) was 0.125 ± 0.006 L/kg. Moreover, in data set [1], the bioavailability was 126% and the “PK-parameters compared to Example 1” value is reported as “improved PK-parameters compared to Example 1”. Further, in data set [1] (po, p.o. (3 mg/kg)), the area under the curve (AUC) amounted to 752 ± 84 µg·h/mL and the highest level (Cmax) was 25200 ± 2700 ng/mL.
